According to US6787564B2, “Optically active clausenamides, process of the preparation thereof, pharmaceutical composition containing the same and their medical use” (Institute of Materia Medica, Chinese Academy of Medical …, priority 2002, dated 2004):

How the values were obtained:
[1] = test system: dentate gyrus of hippocampus; experiment: induction of LTP in hippocampal of rat (population spike amplitude); type: in vivo, SD rats; details: I.C.V.; means ± SD
Description: Adult male SD rats were anesthetized to maintain a surgical level. A stainless steel cannula-recording electrode was placed in DG (dentate gyrus) of hippocampus using a stereotaxic instrument. The combination of cannula-recording electrode was constructed by insulating the outside of the cannula, except at the tip and top. In the top noninsulated area, a stainless steel wire was wrapped around the cannula and connected to the amplifier via an amphenol connector. The four pairs optically active clausenamides shown in table 9 was delivered by I.C.V. Responses were evoked via direct stimulation of the performant path (PP) using a stainless steel bipolar stimulating electrode. Constant current stimulation provided by a stimulator was delivered to the stimulating electrode through a Stimulus Isolation Unit.
The stimulating electrode was adjusted until a characteristic EPSP was observed under constant current. The evoked responses were amplified on a series alternating current preamplifier, using a microcomputer, and then stored for off-line analysis using DataWave software. The current intensity that elicited a 50% maximal response in each animal was determined and used for all subsequent stimulation. To measure treatment effects, responses were evoked once every 30 sec throughout the entire experiment, and population spike amplitude(PSA) were calculated.

[2] = test system: Human embryonic neural stem cells; experiment: colony-form frequency in human embryonic neural stem cells; type: cell-based; details: 1 μM; for Colonies, 6 weeks / Colonies, 4 weeks / Colonies, 3 weeks: N 4; for Colonies, 6 weeks: Control(DMSO) 22.25 ± 4.86; for Colonies, 4 weeks: Control(DMSO) 30.33 ± 4.99; for Colonies, 3 weeks: Mean ± SD, Control(DMSO) 43.00 ± 4.97
Experimental: Human embryonic brain neural stem cells(NSC) were dissociated enzymatically with 0.05% trypsin-0.53 mM EDTA and cultured in the DMEM/F12 medium with N2 supplement (GIBCO), fibroblast growth factor-2 (20 ng/ml), epidermal growth factor (20 ng/ml) at 37° C. The media were changed once every week. The single cell suspension from neurosphere cells of NSC was dissociated by 0.1% trypsin. 2×10^4 cells were seeded in a well of a 96-well plate. After 24 hours, the dose at 1 μM of tested chemical was added in a well. 6 chemicals, (−)neoclausenamide(−), (+)neoclausenamide(+), (−)epineoclausenamide(−), (+)epineoclausenamide(+), (−)cisneoclausenamide(−) and (+)cisneoclausenamide(+), were detected. 4 wells were used each group. The media with tested chemical were changed once every week. The colonies of NSC were formed and counted under a microscopy at 3 weeks, 4 weeks and 6 weeks.

[3] = test system: animals with anisodine-induced memory impairment; experiment: step-through test, memory impairment induced by anisodine; type: in vivo
Description: (§1) This invention used one trial avoidance task—step-down and step-through tests and water maze to compare the improving memorial effects of (±), (−) clausenamide. The drugs were given orally once to animals before experiment in step-down and step-through tests. The water maze test lasted for 5 days in succession. The results were expressed as latency and errors number.

[4] = test system: animals with anisodine-induced memory impairment; experiment: memory impairment induced by anisodine in water maze test; type: in vivo
Description: as §1

[5] = test system: β-AP (25-35)-treated rats; experiment: one trial passive avoidance of β-AP (25-35)-treated rats; type: in vivo; details: β-AP-treated + vehicle, n = 8, MEAN ± S.E.M.
[6] = test system: A β 25-35 treated rats; experiment: Morris water maze, A β 25-35 induced impairment of memory; type: in vivo; details: A β 25-35 alone
Description: Pathological features of Alzheimer's disease (AD) include extensive neuronal loss and the presence of numerous neurofibrillary tangles and senile plaques in the brain. The senile plaques contain amyloid fibrils derived from a 39-43 amino acids peptide referred to as β-amyloid or A β which can produce neurotoxicity. A β 25-35 poccesses the similar neurotoxicity and ability of self-aggregation as A β 1-42. Administrated aggregated A β 25-35 into rat's lateral cerebral ventricle induced memory impairment in Morris water maze.
With increasing of training days, the initial heading angle became small. On the 3th day, the initial heading angle of A β group was larger than control. […] (see Tab.3)
There are four strategies for finding platform in Morris water maze: random, circle, taxis and line. In the beginning of training the search strategies for finding target is mainly circle and random, with the increasing of training, the percentage of the two strategies declined gradually, Beginning from the 3th day, declining speed in control and (−) clausenamide group was faster than A β,(+) clausenamide and piracetam groups.

[7] = test system: dentate gyrus granule cells; experiment: basal synaptic transmission / LTP in dentate gyrus of hippocampus in anesthetized rats (population spike amplitude); type: in vivo; details: for decrease of PS amplitude compared with that of (−) clausenamide: 60 min
Description: Drugs or vehicle injection were delivered via cannula in the lateral cerebral ventricle at final concentration of 2×10^−6 mol/L. The population spike (PS) amplitude was employed as an indication of the level of excitation of the granular cell population in the dentate gyrus. To obtain this measurement, an evoked response was generated in the dentate gyrus granule cell layer by stimulating the pp at low freguency (0.033 Hz) with. single square wave pulses of 0.15 ms duration The LTP formation must accord the following creteria: The PS amplitude increased is over 30% and this high PS amplitude can persist for 40 min.

[8] = test system: animals; experiment: memory in water maze test; type: in vivo
Description: as §1

[9] = anisodine + drug 10 mg/kg (Tab 7)
[10] = anisodine + drug 50 mg/kg (Tab 7)

Compound	PSA (%), 15 min [1] [%]	PSA (%), 30 min [1] [%]	PSA (%), 60 min [1] [%]	frequency of colonies of NSC vs control group at 6 weeks (in words) [2]	Colonies, 6 weeks [2]	Colonies, 4 weeks [2]	Colonies, 3 weeks [2]	also measured
CN1C(=O)[C@@H](O)[C@H]([C@@H](O)c2ccccc2)[C@H]1c1ccccc1 [(+)cisclausenamide, 3S4S5S6R (+)cisclausenamide]	87.3 ± 4.4	102.9 ± 5.9	122.5 ± 14.5					
CN1C(=O)[C@H](O)[C@@H]([C@@H](O)c2ccccc2)[C@H]1c1ccccc1 [(+)cisneoclausenamide, 3R4R5S6R (+)cisneoclausenamide]	135.0 ± 12.9	150.9 ± 19.9	192.3 ± 22.4	not any difference	24.00 ± 4.69	42.50 ± 10.01	47.00 ± 9.03	
CN1C(=O)[C@H](O)[C@H]([C@H](O)c2ccccc2)[C@H]1c1ccccc1 [(+)epiclausenamide, 3R4S5S6S (+)epiclausenamide]	136.0 ± 22.8	147.5 ± 15.0	207.8 ± 12.8					
CN1C(=O)[C@H](O)[C@H]([C@@H](O)c2ccccc2)[C@@H]1c1ccccc1 [(+)epineoclausenamide, 3R4S5R6R(+)epineoclausen amide]				not any difference	26.00 ± 2.94	38.50 ± 5.02	49.75 ± 10.26	
CN1C(=O)[C@H](O)[C@@H]([C@H](O)c2ccccc2)[C@@H]1c1ccccc1 [(−)cisclausenamide, 3R4R5R6S (−)cisclausenamide]	126.2 ± 2.3	141.2 ± 8.6	205.4 ± 24.7					
CN1C(=O)[C@@H](O)[C@H]([C@H](O)c2ccccc2)[C@@H]1c1ccccc1 [(−)cisneoclausenamide, 3S4S5R6S (−)cisneoclausenamide]	94.1 ± 6.7	98.2 ± 6.6	94.9	significantly difference	33.50 ± 4.20	35.25 ± 7.46	49.50 ± 5.43	
CN1C(=O)[C@@H](O)[C@@H]([C@@H](O)c2ccccc2)[C@@H]1c1ccccc1 [(−)epiclausenamide, 3S4R5R6R (−)epiclausenamide]	97.8 ± 21.7	91.2 ± 22.5	117.3 ± 22.5					
CN1C(=O)[C@@H](O)[C@@H]([C@H](O)c2ccccc2)[C@H]1c1ccccc1 [(−)epineoclausenamide, 3S4R5S6S(−)epineoclausenamide]				significantly difference	32.50 ± 7.05	36.75 ± 7.59	58.00 ± 13.02	
CN1[C@@H]2CC(OC(=O)[C@@](O)(CO)c3ccccc3)C[C@H]1[C@@H]1O[C@@H]12 (stereo partly drawn) [Anisodine, reference compound]								Error number ([3]; anisodine 10 mg/kg alone, 0.9% Nacl 2.0 ± 3.8 (Tab 7)): 14.1 ± 8.9; Latencies ([3]; anisodine 10 mg/kg alone, 0.9% Nacl 152.1 ± 64.2, N = 10 (Tab 7)): 35.8 ± 76.4 s; Errors number ([4]; anisodine group alone, 10 animals): 15.9 ± 11.3
A β 25-35: β-amyloid fragment with neurotoxicity and self-aggregation like A β 1-42; icv injection induces memory impairment (GSNKGAIIGLM; Amyloid-beta protein 42; UniProt P05067 696-706, looked up, fragment)								Number of error, Acquisition ([5]; sham-operated + vehicle 0.3 ± 0.12): 0.9 ± 0.33; Number of error, Training ([5]; sham-operated + vehicle 1.6 ± 0.42): 2.6 ± 0.71; initial heading angle, training day 5 ([6]; control 15.4 ± 20.4): 46.7 ± 19.4; initial heading angle, training day 4 ([6]; control 29.6 ± 10.7): 60.6 ± 23.8; initial heading angle, training day 3 ([6]; control 47.3 ± 15.1): 73.6 ± 20.3; initial heading angle, training day 2 ([6]; control 76.8 ± 29.8): 98.7 ± 30.4; initial heading angle, training day 1 ([6]; control 93.6 ± 34.6): 106.3 ± 29.8
Racemic clausenamide [(±) clausenamide, reference compound]								effect on PS amplitude (in words) ([7]; 2 μM to 10 μM): inhibitory effect on PS amplitude; decrease of PS amplitude compared with that of (−) clausenamide ([7]; first of the two concentrations (2 μM)): 44%; decrease of PS amplitude compared with that of (−) clausenamide ([7]; second of the two concentrations (10 μM)): 55%; LTP formation (PS amplitude increase over 30% persisting 40 min) ([7]; (−) at 2×10^−6 mol/L, (±) up to 5 times that): could not induce LTP; Lalencies reaching platform, 3rd day ([8]; 10 mg/kg): 23.9 ± 22.6 s; Lalencies reaching platform, 4th day ([8]; 10 mg/kg): 17.1 ± 14.3 s; Lalencies reaching platform, Second day ([8]; 10 mg/kg): 35.8 ± 35.2 s; Lalencies reaching platform, 3rd day ([8]; 50 mg/kg): 25.7 ± 13.8 s; Lalencies reaching platform, 4th day ([8]; 50 mg/kg): 14.6 ± 10.4 s; Lalencies reaching platform, Second day ([8]; 50 mg/kg): 36.6 ± 37.0 s; Error number [3, 9]: 11.3 ± 21.5; Latencies [3, 9]: 43.0 ± 65.8 s; Error number [3, 10]: 14.4 ± 12.3; Latencies [3, 10]: 79.9 ± 63.6 s; Errors number ([4]; anisodine + drug 10 mg/kg): 16.6 ± 23.9; Errors number ([4]; anisodine + drug 100 mg/kg): 9.11 ± 3.8
